Measured values published in ChEMBL document CHEMBL1201862, “PubChem BioAssay data set” (2004).
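Five concentrations, 48 hours, 96-well plates. At the GI50, growth is halved.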 Activity calls are given as the source filed them. Rule as the data show it: active = GI50 up to about 1.1 µM and inactive = higher.

How the values were obtained:
Assay in all cases: NCI tumour cell line growth inhibition, 48 h
UO-31 = system: UO-31
MDA-MB-231 = system: MDA-MB-231
RPMI-8226 = system: RPMI-8226
SR = system: SR
DU-145 = system: DU-145
Malme-3M = system: Malme-3M
HOP-92 = system: HOP-92
MDA-N = system: MDA-N
SNB-19 = system: SNB-19
M14 = system: M14
SK-OV-3 = system: SK-OV-3
SF-268 = system: SF-268
Hs-578T = system: Hs-578T
MCF7 = system: MCF7
T47D = system: T47D
MDA-MB-435 = system: MDA-MB-435
BT-549 = system: BT-549
EKVX = system: EKVX
NCI-H226 = system: NCI-H226
OVCAR-4 = system: OVCAR-4
A549 = system: A549
CAKI-1 = system: CAKI-1
HT-29 = system: HT-29
RXF 393 = system: RXF 393
MOLT-4 = system: MOLT-4
SW-620 = system: SW-620
NCI/ADR-RES = system: NCI/ADR-RES
UACC-62 = system: UACC-62
OVCAR-8 = system: OVCAR-8
SK-MEL-5 = system: SK-MEL-5
U-251 = system: U-251
ACHN = system: ACHN
SN12C = system: SN12C
SK-MEL-28 = system: SK-MEL-28
SF-539 = system: SF-539
UACC-257 = system: UACC-257
A498 = system: A498
OVCAR-5 = system: OVCAR-5
SF-295 = system: SF-295
NCI-H460 = system: NCI-H460
COLO 205 = system: COLO 205
NCI-H522 = system: NCI-H522
786-0 = system: 786-0
OVCAR-3 = system: OVCAR-3
LOX IMVI = system: LOX IMVI
TK-10 = system: TK-10
HL-60 = system: HL-60
K562 = system: K562
SNB-75 = system: SNB-75
HCT-15 = system: HCT-15
HCT-116 = system: HCT-116
KM12 = system: KM12
NCI-H23 = system: NCI-H23
IGROV-1 = system: IGROV-1
PC-3 = system: PC-3
SK-MEL-2 = system: SK-MEL-2
HOP-62 = system: HOP-62
CCRF-CEM = system: CCRF-CEM
HCC 2998 = system: HCC 2998

Question: Which GI50 (UO-31) does the source give for `CCC(C(=O)c1cccs1)C(O)(C(F)(F)F)C(F)(F)F` (stereo not drawn) here?
Answer: > 100 µM (inactive)

Question: What about the GI50 (MDA-MB-231) of the same molecule?
Answer: > 100 µM (inactive)

Question: And the GI50 (RPMI-8226)?
Answer: > 100 µM (inactive)

Question: And the GI50 (SR)?
Answer: > 100 µM (inactive)

Question: And the GI50 (DU-145)?
Answer: > 100 µM (inactive)

Question: What about the GI50 (Malme-3M) of the same molecule?
Answer: > 100 µM (inactive)

Question: What about the GI50 (HOP-92) of the same molecule?
Answer: > 100 µM (inactive)

Question: And the GI50 (MDA-N)?
Answer: > 100 µM (inactive)

Question: And the GI50 (SNB-19)?
Answer: > 100 µM (inactive)

Question: What about the GI50 (M14) of the same molecule?
Answer: > 100 µM (inactive)

Question: What about the GI50 (SK-OV-3) of the same molecule?
Answer: > 100 µM (inactive)

Question: And the GI50 (SF-268)?
Answer: > 100 µM (inactive)

Question: What about the GI50 (Hs-578T) of the same molecule?
Answer: > 100 µM (inactive)

Question: What about the GI50 (MCF7) of the same molecule?
Answer: > 100 µM (inactive)

Question: And the GI50 (T47D)?
Answer: > 100 µM (inactive)

Question: And the GI50 (MDA-MB-435)?
Answer: > 100 µM (inactive)

Question: And the GI50 (BT-549)?
Answer: > 100 µM (inactive)

Question: And the GI50 (EKVX)?
Answer: > 100 µM (inactive)

Question: What about the GI50 (NCI-H226) of the same molecule?
Answer: > 100 µM (inactive)

Question: And the GI50 (OVCAR-4)?
Answer: > 100 µM (inactive)

Question: And the GI50 (A549)?
Answer: > 100 µM (inactive)

Question: And the GI50 (CAKI-1)?
Answer: > 100 µM (inactive)

Question: What about the GI50 (HT-29) of the same molecule?
Answer: > 100 µM (inactive)

Question: What about the GI50 (RXF 393) of the same molecule?
Answer: > 100 µM (inactive)

Question: What about the GI50 (MOLT-4) of the same molecule?
Answer: > 100 µM (inactive)

Question: And the GI50 (SW-620)?
Answer: > 100 µM (inactive)

Question: What about the GI50 (NCI/ADR-RES) of the same molecule?
Answer: > 100 µM (inactive)

Question: And the GI50 (UACC-62)?
Answer: > 100 µM (inactive)

Question: What about the GI50 (OVCAR-8) of the same molecule?
Answer: > 100 µM (inactive)

Question: And the GI50 (SK-MEL-5)?
Answer: > 100 µM (inactive)

Question: And the GI50 (U-251)?
Answer: > 100 µM (inactive)

Question: What about the GI50 (ACHN) of the same molecule?
Answer: > 100 µM (inactive)

Question: What about the GI50 (SN12C) of the same molecule?
Answer: > 100 µM (inactive)

Question: What about the GI50 (SK-MEL-28) of the same molecule?
Answer: > 100 µM (inactive)

Question: What about the GI50 (SF-539) of the same molecule?
Answer: > 100 µM (inactive)

Question: And the GI50 (UACC-257)?
Answer: > 100 µM (inactive)

Question: What about the GI50 (A498) of the same molecule?
Answer: > 100 µM (inactive)

Question: What about the GI50 (OVCAR-5) of the same molecule?
Answer: > 100 µM (inactive)

Question: What about the GI50 (SF-295) of the same molecule?
Answer: > 100 µM (inactive)

Question: What about the GI50 (NCI-H460) of the same molecule?
Answer: > 100 µM (inactive)

Question: And the GI50 (COLO 205)?
Answer: > 100 µM (inactive)

Question: And the GI50 (NCI-H522)?
Answer: > 100 µM (inactive)

Question: What about the GI50 (786-0) of the same molecule?
Answer: > 100 µM (inactive)

Question: And the GI50 (OVCAR-3)?
Answer: > 100 µM (inactive)

Question: And the GI50 (LOX IMVI)?
Answer: > 100 µM (inactive)

Question: And the GI50 (TK-10)?
Answer: > 100 µM (inactive)

Question: What about the GI50 (HL-60) of the same molecule?
Answer: 3.39 µM (inactive)

Question: What about the GI50 (K562) of the same molecule?
Answer: > 100 µM (inactive)

Question: And the GI50 (SNB-75)?
Answer: > 100 µM (inactive)

Question: What about the GI50 (HCT-15) of the same molecule?
Answer: > 100 µM

Question: What about the GI50 (HCT-116) of the same molecule?
Answer: > 100 µM (inactive)

Question: And the GI50 (KM12)?
Answer: > 100 µM (inactive)

Question: What about the GI50 (NCI-H23) of the same molecule?
Answer: > 100 µM (inactive)

Question: And the GI50 (IGROV-1)?
Answer: > 100 µM (inactive)

Question: And the GI50 (PC-3)?
Answer: > 100 µM (inactive)

Question: What about the GI50 (SK-MEL-2) of the same molecule?
Answer: > 100 µM (inactive)

Question: And the GI50 (HOP-62)?
Answer: > 100 µM (inactive)

Question: What does the source list for `Cc1cn(CC2(CO)CCC2)c(=O)[nH]c1=O`?
Answer: GI50 (UO-31): > 100 µM (inactive); GI50 (MDA-MB-231): > 100 µM (inactive); GI50 (RPMI-8226): > 100 µM (inactive); GI50 (SR): > 100 µM (inactive); GI50 (DU-145): > 100 µM (inactive); GI50 (Malme-3M): > 100 µM (inactive); GI50 (MDA-N): > 100 µM (inactive); GI50 (SK-OV-3): > 100 µM (inactive); GI50 (SF-268): > 10 µM (inactive); GI50 (Hs-578T): > 100 µM (inactive); GI50 (MCF7): > 100 µM (inactive); GI50 (T47D): > 100 µM (inactive); GI50 (MDA-MB-435): > 100 µM (inactive); GI50 (BT-549): > 100 µM (inactive); GI50 (EKVX): > 100 µM (inactive); GI50 (CCRF-CEM): > 100 µM (inactive); GI50 (NCI-H226): > 100 µM (inactive); GI50 (OVCAR-4): > 100 µM (inactive); GI50 (A549): > 100 µM (inactive); GI50 (CAKI-1): > 100 µM (inactive); GI50 (HT-29): > 100 µM (inactive); GI50 (RXF 393): > 100 µM (inactive); GI50 (MOLT-4): > 100 µM (inactive); GI50 (SW-620): > 100 µM (inactive); GI50 (NCI/ADR-RES): > 100 µM (inactive); GI50 (UACC-62): > 100 µM (inactive); GI50 (OVCAR-8): > 100 µM (inactive); GI50 (SK-MEL-5): > 100 µM (inactive); GI50 (U-251): > 100 µM (inactive); GI50 (ACHN): > 100 µM (inactive); GI50 (SN12C): > 100 µM (inactive); GI50 (SK-MEL-28): > 100 µM (inactive); GI50 (SF-539): > 100 µM (inactive); GI50 (UACC-257): > 100 µM (inactive); GI50 (A498): > 100 µM (inactive); GI50 (OVCAR-5): > 100 µM (inactive); GI50 (SF-295): > 100 µM (inactive); GI50 (NCI-H460): > 100 µM (inactive); GI50 (HCC 2998): > 100 µM (inactive); GI50 (COLO 205): > 100 µM (inactive); GI50 (NCI-H522): > 100 µM (inactive); GI50 (786-0): > 100 µM (inactive); GI50 (OVCAR-3): > 100 µM (inactive); GI50 (LOX IMVI): > 100 µM (inactive); GI50 (TK-10): > 100 µM (inactive); GI50 (HL-60): > 100 µM (inactive); GI50 (K562): > 100 µM (inactive); GI50 (SNB-75): > 100 µM (inactive); GI50 (HCT-15): > 100 µM; GI50 (HCT-116): > 100 µM (inactive); GI50 (KM12): > 100 µM (inactive); GI50 (NCI-H23): > 100 µM (inactive); GI50 (IGROV-1): > 100 µM (inactive); GI50 (PC-3): > 100 µM (inactive); GI50 (SK-MEL-2): > 100 µM (inactive); GI50 (HOP-62): > 100 µM (inactive)
